According to PMC6540285, “Evaluation of Protein Kinase Inhibitors with PLK4 Cross-Over Potential in a Pre-Clinical Model of Cancer” (International Journal of Molecular Sciences, 2019):
Where two headings read alike, the source gives them in different places.

How the values were obtained:
DAOY cells [1] = format: cell-based; conditions: Homo sapiens, read-out: MTT: IC50 of the proliferation assay
AURKA = biological target: T1, AURKA (Homo sapiens, UniProt O14965); experiment: Z' LYTE Kinase Assay, 10-point IC50; format: biochemical; conditions: SelectScreen, 10-point titration
T1 sequence (O14965 1-403): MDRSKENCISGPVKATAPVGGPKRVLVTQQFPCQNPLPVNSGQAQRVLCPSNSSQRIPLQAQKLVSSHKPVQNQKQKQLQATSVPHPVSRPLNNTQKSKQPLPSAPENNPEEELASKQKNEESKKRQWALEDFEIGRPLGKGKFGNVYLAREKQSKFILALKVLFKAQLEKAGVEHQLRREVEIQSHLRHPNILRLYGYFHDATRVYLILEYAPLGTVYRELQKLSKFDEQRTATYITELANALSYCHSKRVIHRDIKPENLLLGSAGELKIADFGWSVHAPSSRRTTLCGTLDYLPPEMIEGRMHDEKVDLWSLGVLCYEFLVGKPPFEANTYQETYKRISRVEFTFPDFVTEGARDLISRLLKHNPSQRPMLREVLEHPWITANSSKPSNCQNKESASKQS
Description: (§1) Curves were generated from the compound concentration and the corresponding percent (%) inhibition calculated for each concentration tested. For PLK4, we used the LanthaScreen Eu Kinase Binding Assay (Thermo Fisher Scientific, Carlsbad, CA, USA) that utilizes an Alexa Fluor conjugated “tracer” and an Eu-labeled anti-tag antibody to measure binding of a compound to the kinase target. For AURKs (AURKA, AURKB and AURKC) we used the Z’ LYTE Kinase Assay (Thermo Fisher Scientific, Carlsbad, CA, USA) that determines the differential sensitivity of phosphorylated and non-phosphorylated peptide substrates to proteolytic cleavage using a FRET-based readout.

AURKC = biological target: T2, AURKC (Homo sapiens, UniProt Q9UQB9); experiment: Z' LYTE Kinase Assay, 10-point IC50; format: biochemical; conditions: SelectScreen, 10-point titration
T2 sequence (Q9UQB9 1-309): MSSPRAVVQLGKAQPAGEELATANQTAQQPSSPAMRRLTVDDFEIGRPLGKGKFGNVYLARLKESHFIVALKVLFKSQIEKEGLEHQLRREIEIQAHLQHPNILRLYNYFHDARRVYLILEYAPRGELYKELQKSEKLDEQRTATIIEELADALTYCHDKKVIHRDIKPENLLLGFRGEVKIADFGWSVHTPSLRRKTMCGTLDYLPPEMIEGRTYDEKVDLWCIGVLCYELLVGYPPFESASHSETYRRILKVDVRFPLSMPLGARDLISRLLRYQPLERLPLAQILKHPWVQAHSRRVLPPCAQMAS
Description: as §1

AURKB = AURKB (Homo sapiens, UniProt Q96GD4); experiment: Z' LYTE Kinase Assay, 10-point IC50; format: biochemical; conditions: SelectScreen, 10-point titration
Description: as §1

RT and MB cells [2] = experiment: Cell cycle analysis (PI flow cytometry); format: cell-based; conditions: for polyploidy: cell lines tested, concentration not given
Description: Cell cycle analysis was performed by flow cytometry of cells stained with Propidium Iodide (PI) (Thermo Fisher Scientific, Carlsbad, CA, USA) according to manufacturer’s instructions. Cells treated with the top PLK4i candidates and 0.1% DMSO (control) were fixed in 80% ethanol overnight, stained with PI, and then subjected to flow cytometric analysis using a BD Fortessa instrument (BD Biosciences, San Jose, CA, USA). Data was analyzed using Modfit LT from Verity Software House (Topsham, ME, USA). All experiments were performed in triplicate.

MON cells [3] = experiment: cells; conditions: read-out: MTT: IC50 of the proliferation assay
RT and MB cells [4] = experiment: Clonogenic colony formation assay; format: cell-based; conditions: 50nM
Description: All cell lines were seeded at 200 cells per well in six-well plates and incubated overnight. After 24 h, the treatment medium was added and changed once a week. Cells were treated with 0.01, 0.05, 0.1, 0.2, 0.5, 1, 5, and 10 µM of PLK4i and 0.1% DMSO as control. After 14 days, the cells were washed twice with 1x PBS, fixed with formalin, and stained with Cresyl violet (ACROS Organics, Pittsburgh, PA, USA). Colonies were counted using the ImageJ software (www.imagej.nih.gov, accessed on April 21, 2017).

DAOY cells [5] = experiment: PrestoBlue Cell Viability assay; format: cell-based; conditions: Homo sapiens, read-out: PB: IC50 of the PrestoBlue Viability assay
Description: (§2) Cell viability was assessed using the Presto Blue™ Cell Viability reagent (Thermo Fisher Scientific, Carlsbad, CA, USA) following the manufacturer’s instructions. Cells were plated in 96-well plates at the same densities described above for the proliferation assay. The fluorescence was measured after 24, 48, 72, and 96 h at concentrations ranging from 0.001 to 10 µM of the inhibitor. All assays were performed in triplicate.

MON cells [6] = experiment: PrestoBlue Cell Viability assay; format: cell-based; conditions: read-out: PB: IC50 of the PrestoBlue Viability assay
Description: as §2

D283 cells [7] = experiment: PrestoBlue Cell Viability assay; format: cell-based
Description: as §2

BT-12 cells [8] = experiment: PrestoBlue Cell Viability assay; format: cell-based
Description: as §2

BT-16 cells [9] = experiment: PrestoBlue Cell Viability assay; format: cell-based
Description: as §2

BT-12 cells [10] = format: cell-based; conditions: Homo sapiens, BT-12, read-out: MTT: IC50 of the proliferation assay
PLK4 = biological target: T3, PLK4 (Homo sapiens, UniProt O00444); experiment: LanthaScreen Eu Kinase Binding Assay, 10-point IC50; conditions: SelectScreen, 10-point titration
T3 sequence (O00444 1-970): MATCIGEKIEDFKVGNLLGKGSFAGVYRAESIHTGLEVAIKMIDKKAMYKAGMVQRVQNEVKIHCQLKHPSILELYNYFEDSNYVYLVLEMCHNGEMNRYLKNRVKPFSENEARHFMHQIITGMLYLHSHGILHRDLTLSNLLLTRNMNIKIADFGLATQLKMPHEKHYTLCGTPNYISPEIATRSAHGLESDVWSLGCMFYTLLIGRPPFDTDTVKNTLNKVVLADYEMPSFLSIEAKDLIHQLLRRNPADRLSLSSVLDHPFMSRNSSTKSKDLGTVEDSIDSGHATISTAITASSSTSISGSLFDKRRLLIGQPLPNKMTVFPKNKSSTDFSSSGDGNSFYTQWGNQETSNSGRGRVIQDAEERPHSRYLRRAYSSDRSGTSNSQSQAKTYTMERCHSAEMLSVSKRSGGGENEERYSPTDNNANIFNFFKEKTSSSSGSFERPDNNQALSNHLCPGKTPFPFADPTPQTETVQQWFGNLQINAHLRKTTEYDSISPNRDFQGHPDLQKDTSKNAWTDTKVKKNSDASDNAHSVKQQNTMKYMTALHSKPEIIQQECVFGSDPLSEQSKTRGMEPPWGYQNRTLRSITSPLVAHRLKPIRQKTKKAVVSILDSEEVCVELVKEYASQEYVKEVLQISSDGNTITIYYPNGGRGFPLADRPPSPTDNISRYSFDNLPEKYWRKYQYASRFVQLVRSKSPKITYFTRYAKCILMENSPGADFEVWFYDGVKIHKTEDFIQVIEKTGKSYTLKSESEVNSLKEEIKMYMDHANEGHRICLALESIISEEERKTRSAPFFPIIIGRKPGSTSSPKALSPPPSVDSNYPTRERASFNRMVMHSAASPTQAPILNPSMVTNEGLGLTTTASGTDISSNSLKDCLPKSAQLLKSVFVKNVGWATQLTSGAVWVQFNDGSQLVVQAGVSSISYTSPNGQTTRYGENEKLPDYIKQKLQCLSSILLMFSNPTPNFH
Description: as §1

RT and MB cells [11] = experiment: Beta-galactosidase senescence assay; format: cell-based; conditions: all cell lines
Description: Senescence was evaluated using the Beta-galactosidase assay (Senescence Cells Histochemical Staining Kit CS0030 (Sigma, St Louis, MO, USA) and clonogenic recovery assay as previously described.

BT-16 cells [12] = format: cell-based; conditions: BT-16, read-out: MTT: IC50 of the proliferation assay
D283 cells [13] = format: cell-based
[14] = D283, read-out: PB: IC50 of the PrestoBlue Viability assay
[15] = Homo sapiens, BT-12; read-out: PB: IC50 of the PrestoBlue Viability assay
[16] = BT-16; read-out: PB: IC50 of the PrestoBlue Viability assay
[17] = D283, read-out: MTT: IC50 of the proliferation assay
[18] = Homo sapiens, BT-12, read-out: PB: IC50 of the PrestoBlue Viability assay
[19] = BT-16, read-out: PB: IC50 of the PrestoBlue Viability assay

Sequence of AURKB (Q96GD4 whole entry): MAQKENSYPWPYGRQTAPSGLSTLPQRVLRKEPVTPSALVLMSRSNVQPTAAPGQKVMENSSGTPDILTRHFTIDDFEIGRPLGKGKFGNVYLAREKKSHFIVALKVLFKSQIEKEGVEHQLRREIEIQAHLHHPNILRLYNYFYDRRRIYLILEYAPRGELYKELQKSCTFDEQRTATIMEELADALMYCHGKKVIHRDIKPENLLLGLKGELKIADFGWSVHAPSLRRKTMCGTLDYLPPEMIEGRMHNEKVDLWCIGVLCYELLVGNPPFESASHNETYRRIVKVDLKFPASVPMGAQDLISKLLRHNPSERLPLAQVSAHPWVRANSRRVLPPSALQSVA

SMILES | IC50 (DAOY cells [1]) [nM] | IC50 (AURKA) [nM] | IC50 (AURKC) [nM] | IC50 (AURKB) [nM] | IC50 (MON cells [3]) [nM] | colony formation (RT and MB cells [4]) | IC50 (DAOY cells [5]) [nM] | IC50 (MON cells [6]) [nM] | IC50 (D283 cells [7]; [14]) [nM] | IC50 (BT-12 cells [8]; [15]) [nM] | IC50 (BT-16 cells [9]; [16]) [nM] | IC50 (BT-12 cells [10]) [nM] | IC50 (PLK4) [nM] | cell senescence (beta-galactosidase) (RT and MB cells [11]) | IC50 (BT-16 cells [12]) [nM] | IC50 (D283 cells [13]; [17]) [nM] | IC50 (BT-12 cells [8]; [18]) [nM] | IC50 (BT-16 cells [9]; [19]) [nM] | polyploidy (RT and MB cells [2]) | also measured
COc1ccc2c(c1)/C(=C\c1ccc3c(/C=C/c4ccc(N5CCN(C)CC5)nc4)n[nH]c3c1)C(=O)N2 [CFI-400437] | 684 | 37.2 | 4.88 | 13.1 | 722 | complete inhibition of colony formation in all cell lines | 768 | 640 | 6300 | 604 | > 10000 | 61.6 | 1.55 | induction of cell senescence | 1920 | > 10000 | – | – | – | polyploidy (cell cycle analysis) (RT and MB cells [2]; 500 nM): induction of polyploidy
COc1ccc2c(c1)[C@]1(C[C@H]1c1ccc3c(/C=C/c4ccc(CN5C[C@@H](C)O[C@@H](C)C5)cc4)n[nH]c3c1)C(=O)N2 [CFI-400945, (1r,2s).2-(3-((e).4-(((cis).2,6-dimethylmorpholino)methyl)styryl). 1h.Indazol-6-yl)-5′-methoxyspiro[cyclopropane-1,3′-indolin]-2′-one] | – | – | – | – | – | – | 94 | 5130 | 8400 | – | – | – | – | – | – | – | 8470 | 5830 | – | –
COc1cc2c(cc1F)C(c1ccccc1Cl)=Nc1c(n[nH]c1C)N2 [R1530] | 829 | 6.22 | 30.9 | 42.6 | 3200 | – | 1850 | 3750 | > 10000 | > 10000 | > 10000 | > 10000 | 7.06 | – | 3900 | > 10000 | – | – | – | –
COc1cc(Nc2ncc3c(n2)-c2ccc(Cl)cc2C(c2c(F)cccc2OC)=NC3)ccc1C(=O)O [alisertib] | 340 | – | 9.43 | – | 358 | – | 31 | – | – | > 10000 | > 10000 | – | – | – | – | – | – | – | – | IC50 (MON cells [6]; MON): 213 nM; IC50 (D283 cells [7]; D283; read-out: PB: IC50 of the PrestoBlue Viability assay): 9130 nM; IC50 (D283 cells [13]; D283; read-out: MTT: IC50 of the proliferation assay): 9530 nM
COc1c(Nc2cc(C)[nH]n2)nc(Sc2ccc(S(=O)(=O)Cc3cccc([N+](=O)[O-])c3F)cc2F)nc1N1CCCCC1 [centrinone B] | > 10000 | 623 | 5810 | 10000 | > 10000 | – | > 10000 | > 10000 | 1740 | 6320 | > 10000 | 5190 | 8.69 | – | 5470 | 1240 | – | – | did not induce polyploidy | –
COc1c(Nc2cc(C)[nH]n2)nc(Sc2ccc(S(=O)(=O)Cc3cccc([N+](=O)[O-])c3F)cc2F)nc1N1CCOCC1 [centrinone] | – | 108 | 493 | 680 | – | complete inhibition of colony formation in all cell lines except the MB cell line DAOY and the RT cell line BT-16 | 4500 | 5000 | – | – | – | – | – | induction of cell senescence | – | – | 3400 | 2220 | did not induce polyploidy | polyploidy (cell cycle analysis) (RT and MB cells [2]; 1µM): no polyploidy
